Data: patent publication US20220151954A1, “TREATMENT OF SEBACEOUS GLAND DISORDERS” (priority 2019, published 2022)

Tests used:
[1] = tested on: human sebocytes; conditions: cited from earlier work
[2] = tested on: IL-1β secretion by U937 cells; experiment: Inhibition of secretion of IL-1β by lipopolysaccharide-stimulated U937 cells (ELISA); format: cell-based
Description: (§1) U937 cells, were thawed and treated according to the manufacturer's instructions. The cultures were incubated for recovery at 37° C. with 5% CO2 until 70-80% confluency was reached (visual estimation). Then, approx. 0.3×10^6 ¢/mL (determined by counting) were seeded in 96 well plates containing 200 μL/well of complete growth medium. The cells were incubated at 37° C. with 5% CO2 until 60% confluency was reached (visual estimation, typically—after 48 hr).
(§2) After the cells had reached the required confluency, the medium was replaced with pre-prepared growth medium supplemented with 1 μg/mL of lipopolysaccharides, and the test components were added, at a final volume of 200 μL/well. The following control groups were also added: Naïve cells, vehicle control, stimulation control, stimulation vehicle control. A proper blank control was subtracted from the measurements.
(§3) The cells were incubated for 24 hr. at 37° C. with 5% CO2. After the incubation, the conditioned medium of the different treatment groups was collected under standardized conditions and centrifuged at 250×g for 5 min to remove particulates. Clear supernatants were frozen at −70° C. until cytokines analyses. The secretion levels of IL-1β and TNFα (a major inflammatory marker) were quantified by commercial ELISA.

[3] = tested on: TNFα secretion by U937 cells; experiment: Inhibition of secretion of TNFα by lipopolysaccharide-stimulated U937 cells (ELISA); format: cell-based
Description: as §1, §2, §3

[4] = tested on: PGE2 secretion by RAW 264.7 cells; experiment: Secretion of PGE2 by LPS-stimulated RAW 264.7 cells; format: cell-based
Description: RAW 264.7 cells (approx. 2.5×10^5 ¢/ml, by counting) were seeded in 96 well plates containing 170 μl/well of complete growth medium. The cells were incubated at 37° C. with 5% CO2 for 24 hr. […] In addition, naïve cells, vehicle-treated cells, Stimulated Control, and Stimulated Vehicle Control served as negative controls. Dexamethasone served as a positive control for anti-inflammatory assay. A Blank control group was included in the assay.
The spent media from all test groups were collected under standardized conditions and centrifuged at 250 g for 5 min to remove particulates. Clear supernatants were frozen at −70° C. until analysis. The secretion levels of PGE2 (an important inflammatory marker) were determined.

[5] = tested on: P. acnes; experiment: Propionibacterium acnes growth inhibition (absorbance at 600 nm); format: cell-based
Description: A streak plate isolation technique was performed to isolate a single homogenous colony of P. acnes. A pinch of one colony was inoculated from agar plate into U-shape falcon tube containing 4 ml of broth media. Cultures were incubated at 37° C. in reduced oxygen-conditions for 72 hours. The cultures were then diluted and grown to mid-log phase (O.D. 0.5; 600 nm) for 3 hr.
The bacteria were incubated with the test components (cannabidiol and/or extract of C. asiatica) at different concentrations in triplicate at a final volume of 200 μl in an N-pre-flushed U shape 96-well plates for 3 hr. An additional blank control group was included (media w/o bacteria). Also, a negative (bacteria without test samples) control groups was included in the assay. In addition, combinations of the these components were tested (see Table 2).
The absorbance was recorded at 600 nm. The absorbance of the blank control was subtracted from all measurements. The change in bacterial number in response to increasing test sample concentrations was plotted.

[6] = cultured human sebocytes and human skin organ culture
[7] = Homo sapiens, U-937, each component present at 10 μg/ml, 1 μg/mL lipopolysaccharides, 24 hr

## C=C(C)[C@@H]1CCC(C)=C[C@H]1c1c(O)cc(CCCCC)cc1O [Cannabidiol, cannabidiol]
[1]; [6]
  effect on lipogenic actions of arachidonic acid, linoleic acid + testosterone (in words): inhibited the lipogenic actions
  effect on sebocyte proliferation (in words): suppressed sebocyte proliferation
[1]; human sebocytes
  anti-inflammatory action (in words): exerted complex anti-inflammatory actions
[2]; [7]
  inhibition at 10 µg/mL: 28.4%
[2]; summary of Table 3
  effect on secretion of IL-1β (in words): attenuates
[3]; [7]
  inhibition at 10 µg/mL: 48%
[3]; summary of Table 3
  effect on secretion of TNFα (in words): attenuates
[4]; Mus musculus, RAW264.7, Sample 1: cannabidiol 1.25 μg/ml alone, RAW 264.7, LPS 12.5 ng/ml
  inhibition at 1.25 µg/mL: 1.9%
[4]; Mus musculus, RAW264.7, Sample 2: cannabidiol 2.5 μg/ml alone, RAW 264.7, LPS 12.5 ng/ml
  inhibition at 2.5 µg/mL: 24%
[4]; at a concentration of 2.5 μg/ml
  effect on secretion of PGE2 (in words): attenuates
[5]; Cutibacterium acnes, Sample 1: cannabidiol 1.25 μg/ml, C. asiatica 0, 3 hr
  inhibition at 1.25 µg/mL: -10.9%
[5]; Cutibacterium acnes, Sample 2: cannabidiol 2.5 μg/ml, C. asiatica 0, 3 hr
  inhibition at 2.5 µg/mL: 5.7%
[5]; summary of Table 2
  effect on growth of P. acnes (in words): neither cannabidiol nor extract of C. asiatica significantly inhibits growth
